Molecules are shown by their SMILES. Converted amounts (≈) assume the structure as drawn. The source made the active and inactive calls. The calls are words filed in the database; no cut-off is given here. A value given as a limit tells only on which side of the number the result lay.

Assay [1] relates to Erythrocyte. The assay can be described thus: Anticomplement activity in sheep erythrocytes assessed as concentration required for 50% hemolytic inhibition by classic pathway pretreated for 10 mins with guinea pig serum followed by erythrocyte addition measured after 30 mins by spectrophotometeric method. The following applies: Ovis aries. The format is functional, cell-based.

Assay [2] deals with Erythrocyte. The assay can be described thus: Anticomplement activity in rabbit erythrocytes assessed as concentration required for 50% hemolytic inhibition by alternative pathway pretreated for 10 mins with normal human serum followed by erythrocyte addition measured after 30 mins by spectrophotometeric method. Type of assay: functional, cell-based. The following applies: Oryctolagus cuniculus.

The subject of assay [3] is Erythrocyte. The assay can be described thus: Anticomplement activity in sheep erythrocytes assessed as inhibition of complete hemolysis by classical pathway after 30 mins of compound treatment in normal human serum. The format is functional. The following applies: Ovis aries, 0.5 h.
Assay [4] has as its system Erythrocyte. The assay can be described thus: Anticomplement activity in sheep erythrocytes assessed as inhibition of hemolysis by classical pathway after 30 mins of compound treatment in normal human serum with C1q-depleted sera. The following applies: Ovis aries. Type of assay: functional, cell-based.
The test system of assay [5] is Erythrocyte. In words: Anticomplement activity in sheep erythrocytes assessed as inhibition of hemolysis by classical pathway after 30 mins of compound treatment in normal human serum with C3-depleted sera. Type of assay: functional, cell-based. The following applies: Ovis aries.
Assay [6] has as its system Erythrocyte. The assay can be described thus: Anticomplement activity in sheep erythrocytes assessed as inhibition of hemolysis by classical pathway after 30 mins of compound treatment in normal human serum with C5-depleted sera. The following applies: Ovis aries. Type of assay: functional, cell-based.
Assay [7] relates to Erythrocyte. In words: Anticomplement activity in sheep erythrocytes assessed as inhibition of hemolysis by classical pathway by measuring hemolysis after 30 mins of compound treatment in normal human serum with C3-depleted sera relative to control. Type of assay: functional, Ovis aries.
Assay [8] relates to Erythrocyte. The assay can be described thus: Anticomplement activity in sheep erythrocytes assessed as inhibition of hemolysis by classical pathway by measuring hemolysis after 30 mins of compound treatment in normal human serum with C4-depleted sera relative to control. The format is functional, Ovis aries.
Assay [9] deals with Erythrocyte. In words: Anticomplement activity in sheep erythrocytes assessed as inhibition of hemolysis by classical pathway by measuring hemolysis after 30 mins of compound treatment in normal human serum with C5-depleted sera relative to control. The format is functional, Ovis aries.
In assay [10] the test system is Erythrocyte. The assay can be described thus: Anticomplement activity in sheep erythrocytes assessed as inhibition of hemolysis by classical pathway by measuring hemolysis after 30 mins of compound treatment in normal human serum with C9-depleted sera relative to control. The format is functional, Ovis aries.
The subject of assay [11] is Erythrocyte. In words: Anticomplement activity in sheep erythrocytes assessed as inhibition of hemolysis by classical pathway after 30 mins of compound treatment in normal human serum with C2-depleted sera. The following applies: Ovis aries. The format is functional, cell-based.
Assay [12] relates to Erythrocyte. The assay can be described thus: Anticomplement activity in sheep erythrocytes assessed as inhibition of hemolysis by classical pathway after 30 mins of compound treatment in normal human serum with C4-depleted sera. The format is functional, cell-based. The following applies: Ovis aries.
The subject of assay [13] is Erythrocyte. In words: Anticomplement activity in sheep erythrocytes assessed as inhibition of hemolysis by classical pathway after 30 mins of compound treatment in normal human serum with C9-depleted sera. The format is functional, cell-based. The following applies: Ovis aries.

As to `COc1c(O)cc2c(=O)oc3c(OC)c(O[C@@H]4OC[C@@H](O)[C@H](O)[C@H]4O)cc4c(=O)oc1c2c34`, the results for the IC50 in assay [1] and in assay [2] were 230 µM and 290 µM, respectively.

Consider `O=C(O)/C=C/c1ccc(O)c(O)c1` [CAFFEIC ACID], for which the results for the half-inhibitory concentration (IC50) in assay [1] and in [2] were 750 µM and 940 µM, respectively.

`COc1cc2c(=O)oc3c(O)c(OC)cc4c(=O)oc(c1O)c2c34`: the values for the IC50 in assay [1] and in assay [2] were 1100 µM and 1310 µM, respectively.

As for `O=C1CCc2c1oc(=O)c1cc(O)c(O)c(O)c21`, the IC50 came to 1250 µM in assay [1] and 1560 µM in [2].

Turning to `COc1c(O)cc2c(=O)oc3c(O)c(O[C@@H]4O[C@@H](C)[C@H](O)[C@@H](O)[C@H]4O)cc4c(=O)oc1c2c34`, the IC50 in assay [1] was 180 µM; in assay [2], 260 µM. Also, the MIC in [3] was 340 µM (≈ 157 µg/mL). Besides, the inhibition entry in assay [4], in assay [5] and in [6] was “Active” each time.

Turning to `CCOC(=O)[C@H]1OC(=O)c2cc(O)c(O)c(O)c2[C@@H]1CC(=O)OC`, the half-maximal inhibitory concentration (IC50) in assay [1] was 1450 µM; in assay [2] it was 1840 µM.

Turning to `COC(=O)C1CC(=O)c2oc(=O)c3cc(O)c(O)c(O)c3c21` (configuration not stated) [METHYLBREVIFOLIN CARBOXYLATE], the half-inhibitory concentration (IC50) amounted to 1040 µM in [1] and 1260 µM in [2].

Take `O=C1C[C@@H](c2ccc(O)cc2)[C@]2(O)C(=O)O[C@@H]([C@H](O)CO)[C@H]2O1`: the IC50 came out at 730 µM in assay [1] and 990 µM in [2]. Also, the MIC in [3] is 1760 µM (≈ 571 µg/mL). Also, the “inhibition (INH)” value in assay [7], in assay [8], in assay [9] and in [10] was under 10.6% throughout. Also, the inhibition entry in [11] and in assay [4] was “inactive” each time.

For `CCOC(=O)[C@@H](CC(=O)OC)[C@H]1c2c(cc(O)c(O)c2O)C(=O)O[C@@H]1C(=O)OCC`, the 50% inhibitory concentration (IC50) is 1250 µM in assay [1] and 1530 µM in assay [2].

Regarding `CCOC(=O)C1CC(=O)c2oc(=O)c3cc(O)c(O)c(O)c3c21` (configuration not stated) [ETHYLBREVIFOLIN CARBOXYLATE], the IC50 in assay [1] was found to be 1080 µM; in assay [2], 1360 µM.

`CCOC(=O)c1cc(O)c(O)c(O)c1` [ETHYLGALLATE]: the half-inhibitory concentration (IC50) is 1000 µM in assay [1] and 1240 µM in [2].

In the case of `COC(=O)c1cc(O)c(O)c(O)c1` [GALLIC ACID METHYL ESTER], the concentration for half-maximal inhibition (IC50) is 840 µM in assay [1] and 1070 µM in assay [2].

With `O=c1oc2c(O)c(O)cc3c(=O)oc4c(O)c(O)cc1c4c23` [ELLAGIC ACID], the half-inhibitory concentration (IC50) in assay [1] and in assay [2] was 320 µM throughout.

For the molecule `O=C(O)c1cc(O)c(O)c(O)c1` [GALLIC ACID], the IC50 amounted to 590 µM in assay [1] and 740 µM in assay [2].

As to `CC(=O)N[C@H]1[C@@H](O[C@H]2[C@H](O)[C@@H](O)[C@H](O[C@H]3[C@H](OS(=O)(=O)O)[C@@H](OS(=O)(=O)O)[C@@H](O[C@H]4[C@H](O)[C@@H](OS(=O)(=O)O)C(O)O[C@H]4C(=O)O)O[C@@H]3CO)O[C@@H]2C(=O)O)O[C@H](COS(=O)(=O)O)[C@@H](O)[C@@H]1O` (some centres not stated), the results for the concentration for half-maximal inhibition (IC50) in assay [1] and in assay [2] were 93 µg/mL and 135 µg/mL, respectively.

Take `CC1(C)OC[C@H]([C@@H]2OC(=O)[C@]3(O)[C@@H]2OC(=O)C[C@H]3c2ccc(O)cc2)O1`: the IC50 in assay [1] came out at 920 µM; in [2], 1170 µM.

As to `COc1cc([C@H]2c3cc(O)c(OC)cc3/C(=C/C(=O)NCCc3ccc(O)cc3)[C@H]2C(=O)NCCc2ccc(O)cc2)ccc1O`, the values for the IC50 in [1] and in assay [2] were 390 µM and 420 µM, respectively. Besides, the minimal inhibitory concentration (MIC) in assay [3] amounted to 820 µM (≈ 512 µg/mL). For the same molecule, the inhibition entry in assay [5] and in assay [12] was “Active” in each case.

With `COc1cc(/C=C(/C(=O)NCCc2ccc(O)cc2)c2cc(OC)c(O)c(OC)c2)ccc1O`, the half-inhibitory concentration (IC50) turned out to be 1340 µM in assay [1] and 2800 µM in assay [2].

On to `COc1cc([C@@H](O)[C@@H]2C(=O)NCCc3ccc(cc3)Oc3ccc(cc3)CCNC(=O)/C=C/c3cc(OC)c(O)c2c3)ccc1O`, for which the values for the half-inhibitory concentration (IC50) in [1] and in assay [2] were 520 µM and 720 µM, respectively.

Regarding `COc1cc([C@@H]2OC(=O)[C@@H]3[C@H]2CO[C@H]3c2ccc(O)c(OC)c2)ccc1O`, the IC50 in assay [1] is 880 µM; in [2], 1160 µM.

Consider `COc1cc(/C=C/C(=O)OCCc2ccc(O)cc2)ccc1O`, for which the 50% inhibitory concentration (IC50) in assay [1] worked out at 660 µM; in [2], 1010 µM.

Turning to `Cc1ccc(C(=O)Nc2ccc(S(=O)(=O)O)c3cc(S(=O)(=O)O)cc(S(=O)(=O)O)c23)cc1NC(=O)c1cccc(NC(=O)Nc2cccc(C(=O)Nc3cc(C(=O)Nc4ccc(S(=O)(=O)O)c5cc(S(=O)(=O)O)cc(S(=O)(=O)O)c45)ccc3C)c2)c1` [SURAMIN], the concentration for half-maximal inhibition (IC50) in [1] came out at 120 µM; in assay [2], 180 µM.

As to `COc1c(O)cc2c(=O)oc3c(O)c(O)cc4c(=O)oc1c2c34`, the IC50 in assay [1] worked out at 580 µM; in [2], 670 µM.

As to `COc1c(O)cc2c(=O)oc3c(OC)c(O)cc4c(=O)oc1c2c34`, the concentration for half-maximal inhibition (IC50) was determined as 870 µM in assay [1] and 1070 µM in assay [2].

For the molecule `CCOC(=O)[C@@H](CC(=O)O)[C@H]1c2c(cc(O)c(O)c2O)C(=O)O[C@@H]1C(=O)OCC`, the 50% inhibitory concentration (IC50) in assay [1] was 770 µM; in assay [2], 870 µM.

For the molecule `COc1cc(/C=C/C(=O)NCCc2ccc(O)cc2)ccc1O` [N-TRANS-FERULOYL TYRAMINE], the IC50 in assay [1] is 880 µM; in assay [2], 1330 µM.

In the case of `O=C(O)C[C@H](C(=O)O)[C@H]1c2c(cc(O)c(O)c2O)C(=O)O[C@@H]1C(=O)O`, the IC50 was 620 µM in assay [1] and 730 µM in assay [2].

`CCOC(=O)[C@H]1OC(=O)c2cc(O)c(O)c(O)c2[C@@H]1[C@H](CC(=O)O)C(=O)O`: the half-maximal inhibitory concentration (IC50) stood at 460 µM in assay [1] and 550 µM in assay [2]. Also, in [3], the MIC worked out at 840 µM (≈ 323 µg/mL). Moreover, the inhibition entry in assay [11], in [4] and in assay [13] was “inactive” each time. The inhibition entry in [5], in assay [12] and in assay [6] was “Active” each time.

One may read the IC50 as the concentration needed to halve the response being measured. The MIC is the lowest concentration found to suppress growth.

These data come from ChEMBL document CHEMBL4118121, “Anticomplement compounds from Polygonum chinense” (Bioorg Med Chem Lett, 2018).
